Toxic doses and inconclusive results are not listed.
System: L1210 leukemia ip in BDF1 mice, survival T/C
Test: NCI In Vivo Anticancer Drug Screen. Data for tumor model L1210 Leukemia (intraperitoneal) in B6D2F1 (BDF1) mice
Conditions: endpoint: mean survival time, higher = longer survival
How it was run: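 Survival endpoint. Drug-treated group vs vehicle group, expressed as T divided by C. Tumor passaged by transplantation.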

[1] = dose: 100.0 mg/kg/injection, schedule: Q04DX002 (ip), vehicle: Klucel (hydroxypropylcellulose) (HPC)

C[n+]1ccc(NC(=O)c2ccc(NC(=O)c3ccc(C(=O)Nc4ccc(C(=O)Nc5cc[n+](C)cc5)cc4)c(N)c3)cc2)cc1
T/C (dose: 8.1 mg/kg/injection, schedule: Q01DX Z (oral), vehicle: water): 97 % of control
T/C (dose: 10.0 mg/kg/injection, schedule: Q01DX Z (ip), vehicle: water): 123 % of control
T/C (dose: 12.5 mg/kg/injection, schedule: Q01DX Z (ip), vehicle: water): 124 % of control
T/C (dose: 16.3 mg/kg/injection, schedule: Q01DX Z (oral), vehicle: water): 112 % of control
T/C (dose: 20.0 mg/kg/injection, schedule: Q01DX Z (ip), vehicle: water): 162 % of control
T/C (dose: 25.0 mg/kg/injection, schedule: Q01DX Z (ip), vehicle: water): 150 % of control
T/C (dose: 32.5 mg/kg/injection, schedule: Q01DX Z (oral), vehicle: water): 101 % of control
T/C (dose: 40.0 mg/kg/injection, schedule: Q01DX Z (ip), vehicle: water): 91 % of control
T/C (dose: 50.0 mg/kg/injection, schedule: Q01DX Z (ip), vehicle: water): 120 % of control
T/C (dose: 62.0 mg/kg/injection, schedule: Q01DX Z (ip), vehicle: carboxymethylcellulose (CMC)): 118 % of control
T/C (dose: 65.0 mg/kg/injection, schedule: Q01DX Z (oral), vehicle: water): 105 % of control

Cc1ccccc1-n1cccc1C(=O)O
T/C [1]: 89 % of control
T/C (dose: 200.0 mg/kg/injection, schedule: Q04DX002 (ip), vehicle: Klucel (hydroxypropylcellulose) (HPC)): 96 % of control
T/C (dose: 400.0 mg/kg/injection, schedule: Q04DX002 (ip), vehicle: Klucel (hydroxypropylcellulose) (HPC)): 86 % of control

O=C(OCc1ccccc1CN1CCCCC1)c1ccccc1
T/C (dose: 25.0 mg/kg/injection, schedule: Q04DX002 (ip), vehicle: Klucel (hydroxypropylcellulose) (HPC)): 97 % of control
T/C (dose: 50.0 mg/kg/injection, schedule: Q04DX002 (ip), vehicle: Klucel (hydroxypropylcellulose) (HPC)): 101 % of control
T/C [1]: 97 % of control

CCCCCCC(O)C(=O)O (centres undefined)
T/C (dose: 100.0 mg/kg/injection, schedule: Q04DX002 (ip), vehicle: saline with Tween-80): 102 % of control
T/C (dose: 200.0 mg/kg/injection, schedule: Q04DX002 (ip), vehicle: saline with Tween-80): 102 % of control

Reference: PubChem BioAssay AID248 (DTP/NCI, 2004)
